# Source: ChEMBL document CHEMBL5634160, “Synthesis, biological evaluation and action mechanism of 7H-[1,2,4] triazolo [3,4-b] [1,3,4] thiadiazine-phenylhydrazone derivatives as α-glucosidase inhibitors” (Eur J Med Chem, 2023)
# Key:
# Alpha-glucosidase [1] = target: T1, Alpha-glucosidase (Saccharomyces cerevisiae S288c, UniProt P53341+P38158+P07265); experiment: Inhibition of Saccharomyces cerevisiae alpha-glucosidase using nitrophenol-alpha-D-glucopyranoside (pNPG) as substrate incubated for 15 mins; type: protein assay
# Alpha-glucosidase [2] = target: T1, Alpha-glucosidase; experiment: Competitive inhibition of Saccharomyces cerevisiae alpha-glucosidase using nitrophenol-alpha-D-glucopyranoside (pNPG) as substrate at 24 to 48 uM measured after 15 mins by Lineweaver-Burk plot analysis; type: protein assay
# Alpha-glucosidase [3] = target: T1, Alpha-glucosidase; experiment: Non-competitive inhibition of Saccharomyces cerevisiae alpha-glucosidase using nitrophenol-alpha-D-glucopyranoside (pNPG) as substrate at 24 to 48 uM measured after 15 mins by Lineweaver-Burk plot analysis; type: protein assay
# [4] = target: T2, Alpha-glucosidase (Saccharomyces cerevisiae S288c) (UniProt P53341+P38158+P07265); experiment: Binding affinity to Saccharomyces cerevisiae alpha-glucosidase assessed as decrease in fluorescence intensity at 0 to 45 uM by fluorescence quenching study relative to control; type: protein assay; design: scale not given: the % may be the effect or the level left; settings: dose 0-45 µM
# [5] = target: T2, Alpha-glucosidase (Saccharomyces cerevisiae S288c); experiment: Binding affinity to Saccharomyces cerevisiae alpha-glucosidase assessed as quenching constant value (Ksv) by fluorescence quenching study; type: protein assay
# [6] = target: T2, Alpha-glucosidase (Saccharomyces cerevisiae S288c); experiment: Binding affinity to Saccharomyces cerevisiae alpha-glucosidase assessed as quenching constant value (Kq) by fluorescence quenching study; type: protein assay
# [7] = target: T2, Alpha-glucosidase (Saccharomyces cerevisiae S288c); experiment: Binding affinity to Saccharomyces cerevisiae alpha-glucosidase assessed as quenching constant value (Ka) by fluorescence quenching study; type: protein assay
# [8] = target: T2, Alpha-glucosidase (Saccharomyces cerevisiae S288c); experiment: Binding affinity to Saccharomyces cerevisiae alpha-glucosidase assessed as decrease in fluorescence intensity peak 1 by 3D spectra assay; type: protein assay; design: scale not given: the % may be the effect or the level left
# [9] = target: T2, Alpha-glucosidase (Saccharomyces cerevisiae S288c); experiment: Binding affinity to Saccharomyces cerevisiae alpha-glucosidase assessed as decrease in fluorescence intensity peak 2 by 3D spectra assay; type: protein assay; design: scale not given: the % may be the effect or the level left
# Mus musculus [10] = experiment: Anti-diabetic activity against 16 hrs fasted male Kunming mouse assessed as decrease in postprandial blood glucose at 20 mg/kg, IG after 30 mins […] of sucrose administered and measured upto 2 hrs by sucrose tolerance test; type: functional; settings: po
# Mus musculus [11] = experiment: Anti-diabetic activity against 16 hrs fasted male Kunming mouse assessed as AUC of postprandial blood glucose at 20 mg/kg, IG after 30 mins […] of sucrose administered and measured upto 2 hrs by sucrose tolerance test (reference value: 810.40 +/- 75.53 mM.min); type: functional, organism-based
# [12] = target: T2, Alpha-glucosidase (Saccharomyces cerevisiae S288c); experiment: Binding affinity to Saccharomyces cerevisiae alpha-glucosidase assessed as decrease in protein stability by measuring alpha-helix structure at 5 uM measured after 5 mins by CD spectrum assay (reference value: 84.50%); design: scale not given: the % may be the effect or the level left
# [13] = target: T2, Alpha-glucosidase (Saccharomyces cerevisiae S288c); experiment: Binding affinity to Saccharomyces cerevisiae alpha-glucosidase assessed as decrease in protein stability by measuring alpha-helix structure at 7.5 uM measured after 5 mins by CD spectrum assay (reference value: 84.50%); design: scale not given: the % may be the effect or the level left
# [14] = target: T2, Alpha-glucosidase (Saccharomyces cerevisiae S288c); experiment: Binding affinity to Saccharomyces cerevisiae alpha-glucosidase assessed as decrease in protein stability by measuring alpha-helix structure at 10 uM measured after 5 mins by CD spectrum assay (reference value: 84.50%); design: scale not given: the % may be the effect or the level left
# [15] = target: T2, Alpha-glucosidase (Saccharomyces cerevisiae S288c); experiment: Binding affinity to Saccharomyces cerevisiae alpha-glucosidase assessed as decrease in protein stability by measuring alpha-helix structure at 15 uM measured after 5 mins by CD spectrum assay (reference value: 84.50%); design: scale not given: the % may be the effect or the level left
# [16] = target: T2, Alpha-glucosidase (Saccharomyces cerevisiae S288c); experiment: Binding affinity to Saccharomyces cerevisiae alpha-glucosidase assessed as decrease in protein stability by measuring alpha-helix structure at 20 uM measured after 5 mins by CD spectrum assay (reference value: 84.50%); design: scale not given: the % may be the effect or the level left
# [17] = target: T2, Alpha-glucosidase (Saccharomyces cerevisiae S288c); experiment: Binding affinity to Saccharomyces cerevisiae alpha-glucosidase assessed as decrease in protein stability by measuring beta-sheet structure at 5 uM measured after 5 mins by CD spectrum assay (reference value: 4.30%); design: scale not given: the % may be the effect or the level left
# [18] = target: T2, Alpha-glucosidase (Saccharomyces cerevisiae S288c); experiment: Binding affinity to Saccharomyces cerevisiae alpha-glucosidase assessed as decrease in protein stability by measuring beta-sheet structure at 7.5 uM measured after 5 mins by CD spectrum assay (reference value: 4.30%); design: scale not given: the % may be the effect or the level left
# [19] = target: T2, Alpha-glucosidase (Saccharomyces cerevisiae S288c); experiment: Binding affinity to Saccharomyces cerevisiae alpha-glucosidase assessed as decrease in protein stability by measuring beta-sheet structure at 10 uM measured after 5 mins by CD spectrum assay (reference value: 4.30%); design: scale not given: the % may be the effect or the level left
# [20] = target: T2, Alpha-glucosidase (Saccharomyces cerevisiae S288c); experiment: Binding affinity to Saccharomyces cerevisiae alpha-glucosidase assessed as decrease in protein stability by measuring beta-sheet structure at 15 uM measured after 5 mins by CD spectrum assay (reference value: 4.30%); design: scale not given: the % may be the effect or the level left
# [21] = target: T2, Alpha-glucosidase (Saccharomyces cerevisiae S288c); experiment: Binding affinity to Saccharomyces cerevisiae alpha-glucosidase assessed as decrease in protein stability by measuring beta-sheet structure at 20 uM measured after 5 mins by CD spectrum assay (reference value: 4.30%); design: scale not given: the % may be the effect or the level left
# [22] = target: T2, Alpha-glucosidase (Saccharomyces cerevisiae S288c); experiment: Binding affinity to Saccharomyces cerevisiae alpha-glucosidase assessed as decrease in protein stability by measuring beta-turn structure at 5 uM measured after 5 mins by CD spectrum assay (reference value: 6.80%); design: scale not given: the % may be the effect or the level left
# [23] = target: T2, Alpha-glucosidase (Saccharomyces cerevisiae S288c); experiment: Binding affinity to Saccharomyces cerevisiae alpha-glucosidase assessed as decrease in protein stability by measuring beta-turn structure at 7.5 uM measured after 5 mins by CD spectrum assay (reference value: 6.80%); design: scale not given: the % may be the effect or the level left
# [24] = target: T2, Alpha-glucosidase (Saccharomyces cerevisiae S288c); experiment: Binding affinity to Saccharomyces cerevisiae alpha-glucosidase assessed as decrease in protein stability by measuring beta-turn structure at 10 uM measured after 5 mins by CD spectrum assay (reference value: 6.80%); design: scale not given: the % may be the effect or the level left
# [25] = target: T2, Alpha-glucosidase (Saccharomyces cerevisiae S288c); experiment: Binding affinity to Saccharomyces cerevisiae alpha-glucosidase assessed as decrease in protein stability by measuring beta-turn structure at 15 uM measured after 5 mins by CD spectrum assay (reference value: 6.80%); design: scale not given: the % may be the effect or the level left
# [26] = target: T2, Alpha-glucosidase (Saccharomyces cerevisiae S288c); experiment: Binding affinity to Saccharomyces cerevisiae alpha-glucosidase assessed as decrease in protein stability by measuring beta-turn structure at 20 uM measured after 5 mins by CD spectrum assay (reference value: 6.80%); design: scale not given: the % may be the effect or the level left
# [27] = target: T2, Alpha-glucosidase (Saccharomyces cerevisiae S288c); experiment: Binding affinity to Saccharomyces cerevisiae alpha-glucosidase assessed as decrease in protein stability by measuring random coil structure at 5 uM measured after 5 mins by CD spectrum assay (reference value: 6.20%); design: scale not given: the % may be the effect or the level left
# [28] = target: T2, Alpha-glucosidase (Saccharomyces cerevisiae S288c); experiment: Binding affinity to Saccharomyces cerevisiae alpha-glucosidase assessed as decrease in protein stability by measuring random coil structure at 7.5 uM measured after 5 mins by CD spectrum assay (reference value: 6.20%); design: scale not given: the % may be the effect or the level left
# [29] = target: T2, Alpha-glucosidase (Saccharomyces cerevisiae S288c); experiment: Binding affinity to Saccharomyces cerevisiae alpha-glucosidase assessed as decrease in protein stability by measuring random coil structure at 10 uM measured after 5 mins by CD spectrum assay (reference value: 6.20%); design: scale not given: the % may be the effect or the level left
# [30] = target: T2, Alpha-glucosidase (Saccharomyces cerevisiae S288c); experiment: Binding affinity to Saccharomyces cerevisiae alpha-glucosidase assessed as decrease in protein stability by measuring random coil structure at 15 uM measured after 5 mins by CD spectrum assay (reference value: 6.20%); design: scale not given: the % may be the effect or the level left
# [31] = target: T2, Alpha-glucosidase (Saccharomyces cerevisiae S288c); experiment: Binding affinity to Saccharomyces cerevisiae alpha-glucosidase assessed as decrease in protein stability by measuring random coil structure at 20 uM measured after 5 mins by CD spectrum assay (reference value: 6.20%); design: scale not given: the % may be the effect or the level left
# CYP1A2 = target: T3, CYP1A2 (Rattus norvegicus, UniProt P04799); experiment: Inhibition of CYP1A2 in rat liver microsomes assessed as remaining activity at 100 uM measured after 30 mins by LC-MS/MS analysis; type: ADME, Microsome; settings: read-out: Activity
# T3 sequence (P04799 whole entry): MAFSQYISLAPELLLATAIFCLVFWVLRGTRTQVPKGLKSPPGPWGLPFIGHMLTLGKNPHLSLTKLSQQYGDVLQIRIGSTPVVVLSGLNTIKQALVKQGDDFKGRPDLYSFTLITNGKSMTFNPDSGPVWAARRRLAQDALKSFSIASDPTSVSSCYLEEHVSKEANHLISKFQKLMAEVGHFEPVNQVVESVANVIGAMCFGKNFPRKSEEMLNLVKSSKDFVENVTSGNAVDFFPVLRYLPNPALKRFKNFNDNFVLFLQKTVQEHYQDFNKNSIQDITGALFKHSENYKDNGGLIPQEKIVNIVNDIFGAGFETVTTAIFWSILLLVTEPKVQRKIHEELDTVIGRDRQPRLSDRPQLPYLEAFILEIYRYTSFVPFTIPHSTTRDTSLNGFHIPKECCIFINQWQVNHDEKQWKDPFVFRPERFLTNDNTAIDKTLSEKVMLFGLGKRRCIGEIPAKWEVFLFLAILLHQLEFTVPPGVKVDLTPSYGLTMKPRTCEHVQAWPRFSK
# CYP2B6 = experiment: Inhibition of CYP2B6 in rat liver microsomes assessed as remaining activity at 100 uM measured after 30 mins by LC-MS/MS analysis; type: ADME, Microsome; settings: read-out: Activity
# CYP2C9 = experiment: Inhibition of CYP2C9 in rat liver microsomes assessed as remaining activity at 100 uM measured after 30 mins by LC-MS/MS analysis; type: ADME, Microsome; settings: read-out: Activity
# CYP2C19 = experiment: Inhibition of CYP2C19 in rat liver microsomes assessed as remaining activity at 100 uM measured after 30 mins by LC-MS/MS analysis; type: ADME, Microsome; settings: read-out: Activity
# CYP2D6 = experiment: Inhibition of CYP2D6 in rat liver microsomes assessed as remaining activity at 100 uM measured after 30 mins by LC-MS/MS analysis; type: ADME, Microsome; settings: read-out: Activity
# CYP2E1 = CYP2E1 (Rattus norvegicus, UniProt P05182); experiment: Inhibition of CYP2E1 in rat liver microsomes assessed as remaining activity at 100 uM measured after 30 mins by LC-MS/MS analysis; type: ADME, Microsome; settings: read-out: Activity
# CYP3A4 = experiment: Inhibition of CYP3A4 in rat liver microsomes assessed as remaining activity at 100 uM measured after 30 mins by LC-MS/MS analysis; type: ADME, Microsome; settings: read-out: Activity
# [32] = Cytotoxicity against human HEK293 cells assessed as cell viability at 50 uM measured after 24 hrs by MTT assay relative to control; type: toxicity, cell-based; settings: read-out: Activity
# [33] = Cytotoxicity against human HEK293 cells assessed as cell viability at 100 uM measured after 24 hrs by MTT assay relative to control; type: toxicity, cell-based; settings: read-out: Activity
# [34] = Cytotoxicity against human HEK293 cells assessed as cell viability at 150 uM measured after 24 hrs by MTT assay relative to control; type: toxicity, cell-based; settings: read-out: Activity
# [35] = Cytotoxicity against human HEK293 cells assessed as cell viability at 200 uM measured after 24 hrs by MTT assay relative to control; type: toxicity, cell-based; settings: read-out: Activity
# Chain of CYP2E1 (P05182 whole entry): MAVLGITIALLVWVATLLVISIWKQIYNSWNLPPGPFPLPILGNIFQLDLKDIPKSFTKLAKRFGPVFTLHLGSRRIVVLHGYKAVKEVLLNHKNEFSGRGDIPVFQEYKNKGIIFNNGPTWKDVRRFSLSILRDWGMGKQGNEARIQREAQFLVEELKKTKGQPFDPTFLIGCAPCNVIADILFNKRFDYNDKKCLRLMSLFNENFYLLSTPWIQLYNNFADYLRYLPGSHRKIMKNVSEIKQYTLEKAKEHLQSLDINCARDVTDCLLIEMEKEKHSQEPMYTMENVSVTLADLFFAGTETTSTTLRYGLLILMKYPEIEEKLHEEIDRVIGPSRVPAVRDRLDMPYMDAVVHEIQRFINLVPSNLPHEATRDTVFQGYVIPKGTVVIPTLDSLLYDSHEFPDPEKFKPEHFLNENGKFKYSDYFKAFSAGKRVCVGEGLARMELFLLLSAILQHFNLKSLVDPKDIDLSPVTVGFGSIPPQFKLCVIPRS
smiles,measurement,setting,value
COc1cc(/C=N/Nc2nnc3n2N=C(c2ccccc2)CS3)cc(OC)c1O,IC50,Alpha-glucosidase [1],31.23 µM
same,Ki,Alpha-glucosidase [2],40.46 µM
same,Ki,Alpha-glucosidase [3],87.56 µM
same,Activity,[4],87.7%
same,KSV,[5],1.57 10^5L/mol
same,Kq,[6],1.57 10^13L/mol
same,Ka,[7],3.16 10^4L/mol
same,Activity,[8],31.9%
same,Activity,[9],37.4%
same,inhibition in vivo at 20 mg/kg,Mus musculus [10],24.4%
same,AUC,Mus musculus [11],723 mM·min
same,Activity,[12],66.5%
same,Activity,[13],63.4%
same,Activity,[14],62.7%
same,Activity,[15],60.2%
same,Activity,[16],57.3%
same,Activity,[17],5.8%
same,Activity,[18],6.1%
same,Activity,[19],6.3%
same,Activity,[20],6.6%
same,Activity,[21],7%
same,Activity,[22],10.1%
same,Activity,[23],10.6%
same,Activity,[24],10.8%
same,Activity,[25],11.2%
same,Activity,[26],11.6%
same,Activity,[27],16%
same,Activity,[28],17.5%
same,Activity,[29],18.4%
same,Activity,[30],19.7%
same,Activity,[31],21.2%
same,"activity at 0.5 h, 100 µM",CYP1A2,77.7%
same,"activity at 0.5 h, 100 µM",CYP2B6,98.7%
same,"activity at 0.5 h, 100 µM",CYP2C9,90.7%
same,"activity at 0.5 h, 100 µM",CYP2C19,75.4%
same,"activity at 0.5 h, 100 µM",CYP2D6,92.3%
same,"activity at 0.5 h, 100 µM",CYP2E1,92.6%
same,"activity at 0.5 h, 100 µM",CYP3A4,96.5%
same,"viability at 24 h, 50 µM",[32],100%
same,"viability at 24 h, 100 µM",[33],90.5%
same,"viability at 24 h, 150 µM",[34],81.2%
same,"viability at 24 h, 200 µM",[35],71.6%
CN(C)c1ccc(/C=N/Nc2nnc3n2N=C(c2ccccc2)CS3)cc1,IC50,Alpha-glucosidase [1],35.58 µM
